Measured values taken from publication PMC10092485, “Sialic Acid 4‐N‐Piperazine and Piperidine Derivatives Bind with High Affinity to the P. mirabilis Sialic Acid Sodium Solute Symporter” (Chemmedchem, 2022).

Columns and labels:
Format in all cases: binding
PmSiaT [1] = molecular target: T1, PmSiaT (Proteus mirabilis, UniProt B4EZY7); test: isothermal titration calorimetry; settings: 25 °C; 50 mM Tris-HCl, 150 mM NaCl, 0.0174 % DDM, pH 8.0 (at 5 °C); n fixed to 1
T1 construct: gene siaT; detergent-solubilised transporter in DDM; extinction coefficient 76,445
From the text: isothermal titration calorimetry on PmSiaT

PmSiaT [2] = molecular target: T1, PmSiaT; test: nanoDSF thermal shift; settings: PBS, 0.0174 % DDM, 2 μM protein, 1.25 mM ligand; shift counted from the Neu5Ac complex
PmSiaT [3] = molecular target: T1, PmSiaT; test: nanoDSF thermal shift; settings: PBS, 0.0174 % DDM, 2 μM protein, 1.25 mM ligand; reference ligand for all shifts

T1 sequence (B4EZY7 whole entry): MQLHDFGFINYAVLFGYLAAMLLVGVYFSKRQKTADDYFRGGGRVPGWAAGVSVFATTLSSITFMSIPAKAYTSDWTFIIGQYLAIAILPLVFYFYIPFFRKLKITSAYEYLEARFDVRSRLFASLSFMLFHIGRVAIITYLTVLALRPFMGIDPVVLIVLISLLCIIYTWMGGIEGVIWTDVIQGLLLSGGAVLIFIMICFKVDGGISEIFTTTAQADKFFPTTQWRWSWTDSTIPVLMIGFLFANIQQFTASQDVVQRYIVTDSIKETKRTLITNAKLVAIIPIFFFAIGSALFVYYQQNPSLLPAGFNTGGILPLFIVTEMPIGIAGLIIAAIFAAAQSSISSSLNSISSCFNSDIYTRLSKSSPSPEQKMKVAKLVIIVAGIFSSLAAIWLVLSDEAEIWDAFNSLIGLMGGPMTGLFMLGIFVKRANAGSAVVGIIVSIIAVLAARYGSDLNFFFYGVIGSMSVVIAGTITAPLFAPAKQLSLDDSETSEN

Compound	Kd (PmSiaT [1])	ΔT m (relative to Neu5Ac) (PmSiaT [2])	also measured
CC(=O)N[C@H]1[C@H]([C@H](O)[C@H](O)CO)OC(O)(C(=O)O)C[C@@H]1N1CCC(c2cccc(Br)c2)CC1 (stereo partly drawn) [3 f, 5‐Acetamido‐4‐[4‐(3‐bromophenyl)piperidin‐1‐yl]‐3,4,5‐ trideoxy‐D‐glycero‐β‐D‐galacto‐nonulosonic acid]	1320 nM		
CC(=O)N[C@H]1[C@H]([C@H](O)[C@H](O)CO)OC(O)(C(=O)O)C[C@@H]1N1CCN(C(=O)c2cccc(Cl)c2Cl)CC1 (stereo partly drawn) [6 c, 5‐Acetamido‐4‐[4‐(2,3‐dichlorobenzoyl)piperazin‐1‐yl]‐3,4,5‐ trideoxy‐D‐glycero‐β‐D‐galacto‐nonulosonic acid]	470 nM		
CC(=O)N[C@H]1[C@H]([C@H](O)[C@H](O)CO)OC(O)(C(=O)O)C[C@@H]1N1CCC(c2cccc(C(F)(F)F)c2)CC1 (stereo partly drawn) [3 h, 5‐Acetamido‐3,4,5‐ trideoxy‐4‐[4‐(3‐trifluoromethylphenyl)piperidin‐1‐yl]‐D‐glycero‐β‐D‐galacto‐nonulosonic acid]		piperidine or piperazine‐linked halogenated aromatic residues showed the largest thermal stabilizations	
CC(=O)N[C@H]1[C@H]([C@H](O)[C@H](O)CO)OC(O)(C(=O)O)C[C@@H]1N1CCC(c2cccc(O)c2)CC1 (stereo partly drawn) [3 i, 5‐Acetamido‐4‐[4‐(3‐hydroxyphenyl)piperidin‐1‐yl]‐3,4,5‐ trideoxy‐D‐glycero‐β‐D‐galacto‐nonulosonic acid]	17900 nM		
CC(=O)N[C@H]1[C@H]([C@H](O)[C@H](O)CO)OC(O)(C(=O)O)C[C@@H]1N1CCC(c2ccc(Br)cc2)CC1 (stereo partly drawn) [3 g, 5‐Acetamido‐4‐[4‐(4‐bromophenyl)piperidin‐1‐yl]‐3,4,5‐ trideoxy‐D‐glycero‐β‐D‐galacto‐nonulosonic acid]		piperidine or piperazine‐linked halogenated aromatic residues showed the largest thermal stabilizations	
CC(=O)N[C@H]1[C@H]([C@H](O)[C@H](O)CO)OC(O)(C(=O)O)C[C@@H]1O (stereo partly drawn) [Neu5Ac]			ΔT m (PmSiaT [3]): The ΔT m reported are given in °C and relative to Neu5Ac
